Assay: Colorant stabilization effect (photostabilizer, sunlight exposure)
Design: key to Sunlight exposure (80 MJ) Appearance: A: No change; B: No almost change; C: Yes change; key to Sunlight exposure (80 MJ) ΔE: ΔE color difference (Lab) vs. color before sunlight exposure
Method: First of all, the photostabilization effect and appearance change of a composition in each pigment were studied by the following evaluation formulation.
Each test sample was prepared. Observation of appearance change (visual evaluation) and measurement of color difference (ΔE) were carried out in samples exposed to sunlight exposure (around 80 MJ).
Color difference was measured by Lab coordinate system with spectrophotometer. Color difference was calculated on the basis of the color before sunlight exposure. Namely, from measured value (L1,a1,b1) before sunlight exposure, color difference (ΔE) was calculated by following formula.

[1] = Red No. 227 0.0001 wt % + Yellow No. 5 0.0001 wt %, photostabilizer 0.05 wt %
[2] = Red No. 227 0.0001 wt % + Yellow No. 5 0.0001 wt %, photostabilizer 0.1 wt %
[3] = Red No. 227 0.0001 wt % + Yellow No. 203 0.0001 wt %, photostabilizer 0.05 wt %
[4] = Red No. 227 0.0001 wt % + Yellow No. 203 0.0001 wt %, photostabilizer 0.1 wt %
[5] = Red No. 227 0.0001 wt % + Yellow No. 203 0.0001 wt %, photostabilizer 0.3 wt %
[6] = Red No. 227 0.0001 wt %, photostabilizer 0.02 wt %
[7] = Red No. 227 0.0001 wt %, photostabilizer 0.05 wt %
[8] = Red No. 227 0.0001 wt %, photostabilizer 0.1 wt %
[9] = Red No. 401 0.0001 wt % + Blue No. 1 0.00001 wt %, photostabilizer 0.03 wt %
[10] = Red No. 401 0.0001 wt % + Blue No. 1 0.00001 wt %, photostabilizer 0.05 wt %
[11] = Red No. 401 0.0001 wt % + Blue No. 1 0.00001 wt %, photostabilizer 0.1 wt %
[12] = Red No. 401 0.0001 wt % + Green No. 3 0.00001 wt %, photostabilizer 0.03 wt %
[13] = Red No. 401 0.0001 wt % + Green No. 3 0.00001 wt %, photostabilizer 0.05 wt %
[14] = Red No. 401 0.0001 wt % + Green No. 3 0.00001 wt %, photostabilizer 0.3 wt %
[15] = Red No. 401 0.0001 wt %, photostabilizer 0.05 wt %
[16] = Red No. 401 0.0001 wt %, photostabilizer 0.1 wt %
[17] = Red No. 401 0.0001 wt %, photostabilizer 0.3 wt %
[18] = Red No. 401 0.001 wt %, photostabilizer 0.03 wt %
[19] = Red No. 401 0.001 wt %, photostabilizer 0.05 wt %
[20] = Red No. 401 0.001 wt %, photostabilizer 0.1 wt %
[21] = Yellow No. 5 0.0001 wt %, photostabilizer 0.05 wt %
[22] = Yellow No. 5 0.0001 wt %, photostabilizer 0.1 wt %
[23] = Yellow No. 5 0.0001 wt %, photostabilizer 0.3 wt %
[24] = Yellow No. 5 0.001 wt %, photostabilizer 0.01 wt %
[25] = Yellow No. 5 0.001 wt %, photostabilizer 0.05 wt %
[26] = Yellow No. 5 0.001 wt %, photostabilizer 0.1 wt %
[27] = Yellow No. 203 0.0001 wt % + Yellow No. 5 0.0001 wt %, photostabilizer 0.03 wt %
[28] = Yellow No. 203 0.0001 wt % + Yellow No. 5 0.0001 wt %, photostabilizer 0.05 wt %
[29] = Yellow No. 203 0.0001 wt % + Yellow No. 5 0.0001 wt %, photostabilizer 0.1 wt %
[30] = Yellow No. 203 0.0001 wt %, photostabilizer 0.05 wt %
[31] = Yellow No. 203 0.0001 wt %, photostabilizer 0.1 wt %
[32] = Yellow No. 203 0.0001 wt %, photostabilizer 0.3 wt %
[33] = Yellow No. 203 0.001 wt %, photostabilizer 0.02 wt %
[34] = Yellow No. 203 0.001 wt %, photostabilizer 0.05 wt %
[35] = Yellow No. 203 0.001 wt %, photostabilizer 0.1 wt %

Oc1nncc(N2CCOCC2)c1N1CCOCC1 [4,5-Dimorpholino-3-hydroxypyridazine]
Sunlight exposure (80 MJ) ΔE (Red No. 227 0.0001 wt % + Yellow No. 5 0.0001 wt %, photostabilizer 0.03 wt %): 0.72
Sunlight exposure (80 MJ) Appearance [1]: A
Sunlight exposure (80 MJ) ΔE [1]: 0.59
Sunlight exposure (80 MJ) Appearance [2]: A
Sunlight exposure (80 MJ) ΔE [2]: 0.18
Sunlight exposure (80 MJ) Appearance [3]: A
Sunlight exposure (80 MJ) ΔE [3]: 0.78
Sunlight exposure (80 MJ) Appearance [4]: A
Sunlight exposure (80 MJ) ΔE [4]: 0.35
Sunlight exposure (80 MJ) Appearance [5]: A
Sunlight exposure (80 MJ) ΔE [5]: 0.14
Sunlight exposure (80 MJ) Appearance [6]: A
Sunlight exposure (80 MJ) ΔE [6]: 0.71
Sunlight exposure (80 MJ) Appearance [7]: A
Sunlight exposure (80 MJ) ΔE [7]: 0.49
Sunlight exposure (80 MJ) Appearance [8]: A
Sunlight exposure (80 MJ) ΔE [8]: 0.22
Sunlight exposure (80 MJ) Appearance [9]: A
Sunlight exposure (80 MJ) ΔE [9]: 0.95
Sunlight exposure (80 MJ) Appearance [10]: A
Sunlight exposure (80 MJ) ΔE [10]: 0.32
Sunlight exposure (80 MJ) Appearance [11]: A
Sunlight exposure (80 MJ) ΔE [11]: 0.07
Sunlight exposure (80 MJ) Appearance [12]: A
Sunlight exposure (80 MJ) ΔE [12]: 0.98
Sunlight exposure (80 MJ) Appearance [13]: A
Sunlight exposure (80 MJ) ΔE [13]: 0.73
Sunlight exposure (80 MJ) Appearance [14]: A
Sunlight exposure (80 MJ) ΔE [14]: 0.14
Sunlight exposure (80 MJ) Appearance [15]: A
Sunlight exposure (80 MJ) ΔE [15]: 0.82
Sunlight exposure (80 MJ) Appearance [16]: A
Sunlight exposure (80 MJ) ΔE [16]: 0.56
Sunlight exposure (80 MJ) Appearance [17]: A
Sunlight exposure (80 MJ) ΔE [17]: 0.19
Sunlight exposure (80 MJ) Appearance [18]: A
Sunlight exposure (80 MJ) ΔE [18]: 0.95
Sunlight exposure (80 MJ) Appearance [19]: A
Sunlight exposure (80 MJ) ΔE [19]: 0.71
Sunlight exposure (80 MJ) Appearance [20]: A
Sunlight exposure (80 MJ) ΔE [20]: 0.45
Sunlight exposure (80 MJ) Appearance [21]: A
Sunlight exposure (80 MJ) ΔE [21]: 0.59
Sunlight exposure (80 MJ) Appearance [22]: A
Sunlight exposure (80 MJ) ΔE [22]: 0.71
Sunlight exposure (80 MJ) Appearance [23]: A
Sunlight exposure (80 MJ) ΔE [23]: 0.22
Sunlight exposure (80 MJ) Appearance [24]: A
Sunlight exposure (80 MJ) ΔE [24]: 0.61
Sunlight exposure (80 MJ) Appearance [25]: A
Sunlight exposure (80 MJ) ΔE [25]: 0.43
Sunlight exposure (80 MJ) Appearance [26]: A
Sunlight exposure (80 MJ) ΔE [26]: 0.22
Sunlight exposure (80 MJ) Appearance [27]: A
Sunlight exposure (80 MJ) ΔE [27]: 0.52
Sunlight exposure (80 MJ) Appearance [28]: A
Sunlight exposure (80 MJ) ΔE [28]: 0.37
Sunlight exposure (80 MJ) Appearance [29]: A
Sunlight exposure (80 MJ) ΔE [29]: 0.12
Sunlight exposure (80 MJ) Appearance [30]: A
Sunlight exposure (80 MJ) ΔE [30]: 0.22
Sunlight exposure (80 MJ) Appearance [31]: A
Sunlight exposure (80 MJ) ΔE [31]: 0.10
Sunlight exposure (80 MJ) Appearance [32]: A
Sunlight exposure (80 MJ) ΔE [32]: 0.05
Sunlight exposure (80 MJ) Appearance [33]: A
Sunlight exposure (80 MJ) ΔE [33]: 0.25
Sunlight exposure (80 MJ) Appearance [34]: A
Sunlight exposure (80 MJ) ΔE [34]: 0.18
Sunlight exposure (80 MJ) Appearance [35]: A
Sunlight exposure (80 MJ) ΔE [35]: 0.08
change of appearance of the composition (summary of Tables 11 to 13): small
color difference ΔE (summary of Tables 11 to 13): very small in comparison with other photostabilizers

Reference: US6395896B2, “Pyridazine derivatives, manufacturing method and related composition” (Shiseido Co., Ltd., priority 1999, dated 2002)
